In test [1] the test system is P.A.F.-induced aggregation of blood platelets. Description: anti-P.A.F. action in vitro (P.A.F.-induced platelet aggregation). In kind it is cell-based. As to conditions: Oryctolagus cuniculus, 10^-5 mole/liter, read-out: Anti-P.A.F. activity in vitro, % inhibition of the P.A.F.-induced aggregation of blood platelets from rabbit blood. Summed up:
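Washed rabbit platelets (4×10^9/ml stock suspension, aspirin-lysine treated) in modified Tyrode buffer pH 7.4 with 1.3 mM CaCl2 and gelatine; test substance at 10^-5 mol/l final, 90 s preincubation before P.A.F. Aggregation followed 4-5 min by aggregometer; % inhibition of P.A.F.-induced aggregation increase calculated.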

The test system of test [2] is cutaneous histamine induced anaphylactoid reactions. Nature of the test: inhibition of the anaphylactoid cutaneous reaction induced by histamine. In kind it is in vivo, Sprague-Dawley rats. The following applies: Rattus norvegicus, po, 0.5 h; 2 × 10^-5 mole/kg p.o., one hour before histamine; assessed 30 minutes after provocation; read-out: Inhibitory action against cutaneous histamine induced anaphylactoid reactions in rats, % inhibition. On the procedure:
1. Determination of the inhibition of the anaphylactoid cutaneous reaction induced by histamine.
The inhibition of the anaphylactoid cutaneous reaction induced by histamine was determined in Sprague-Dawley rats having body weights of 150-180 g.
In order to determine the histamine-induced anaphylactoid skin reaction, 50 μl of a physiological saline solution containing 0.8 mg/ml of histamine were injected into the animals intradermally on one flank. Immediately afterward, a solution of 26.4 mg/kg of a blue dye (Evan's Blue) was administered i.v. to the animals.
The test substances were dissolved in distilled water which contains 1% by volume of dimethylformamide and 1% by volume of Tween®20 (=polyoxyethylene(20) sorbitan monolaurate). One hour before the histamine injection, each animal received 2×10^-5 mol/kg of test substance, in each case administered orally in 0.5 ml of solution. A control group received only the solvent for comparison.
The histamine-induced anaphylactoid reactions which manifested themselves by edema formation, swelling and exudation of blue dye are assessed 30 minutes after provocation by the histamine injection. This is carried out by visual determination of the extent of the exudation of blue dye at the sites of edema formation. With the aid of comparison scales, the percentage inhibition of the anaphylactoid reactions produced by the test substances is determined in comparison with the reactions of the control animals not treated with test substance.
The results obtained with compounds of the formula I by the above test method are reproduced in the following table A. The example numbers given as identifiers for the compounds of formula I refer to the subsequent preparative examples.

For the molecule `COc1ccc2c3c1c(C)c(-c1ccc(O)cc1)n3CC(CCN1CCN(c3cc(C)ccn3)CC1)O2` (centres unmarked) [Example 3, 2,3-Dihydro-5-(4-hydroxyphenyl)-7-methoxy-6-methyl-2-[2-(4-(4-methylpyridin-2-yl)piperazin-1-yl)ethyl]pyrrolo[1,2,3-de]-1,4-benzoxazine], in test [1], the inhibition at 10 µM was determined as 92%.

As to `Cc1ccnc(N2CCN(CCC3Cn4c(-c5ccc(O)cc5)c(C)c5c(O)ccc(c54)O3)CC2)c1` (centres unmarked) [Example 4, 2,3-Dihydro-7-hydroxy-5-(4-hydroxyphenyl)-6-methyl-2-[2-(4-(4-methylpyridin-2-yl)piperazin-1-yl)ethyl]pyrrolo[1,2,3-de]-1,4-benzoxazine], the inhibition at 10 µM in test [1] was 99%.

For the molecule `Cc1ccnc(N2CCN(C(=O)CCCC3Cn4c(-c5cc(C)c(O)c(C)c5)c(C)c5cccc(c54)O3)CC2)c1` (centres unmarked) [Example 9, 2,3-Dihydro-5-(3,5-dimethyl-4-hydroxyphenyl)-6-methyl-2-[4-(4-(4-methylpyridin-2-yl)piperazin-1-yl)-4-oxobutyl]-pyrrolo[1,2,3-de]-1,4-benzoxazine], the inhibition at 10 µM in test [1] amounted to 67%.

For `COc1cc(-c2c(C)c3cccc4c3n2CC(CCN2CCN(c3cc(C)ccn3)CC2)O4)ccc1O` (centres unmarked) [Example 12], the inhibition at 10 µM in test [1] was 93%.

Take `Cc1ccnc(N2CCN(CCC3Cn4c(-c5ccc(O)c(O)c5)c(C)c5cccc(c54)O3)CC2)c1` (centres unmarked) [Example 13]: the inhibition at 10 µM in test [1] was determined as 94%.

In the case of `Cc1ccnc(N2CCN(C(=O)CCC3Cn4c(-c5ccc(O)cc5)c(C)c5cccc(c54)O3)CC2)c1` (centres unmarked) [Example 15], the inhibition in vivo at 20 µmol/kg in test [2] came out at 32%. The inhibition at 10 µM in test [1] was determined as 100%.

As for `Cc1ccnc(N2CCN(CCC3Cn4c(-c5cc(C)c(O)c(C)c5)c(C)c5cccc(c54)O3)CC2)c1` (centres unmarked) [Example 20], in test [1], the inhibition at 10 µM came to 92%.

With `Cc1cc(-c2c(C)c3cccc4c3n2CC(CCCC(=O)N2CCN(c3ccccn3)CC2)O4)cc(C)c1O` (centres unmarked) [Example 23], the inhibition at 10 µM in test [1] worked out at 66%.

With `Cc1ccnc(N2CCN(C(=O)CCC3Cn4c(-c5cc(C)c(O)c(C)c5)c(C)c5cccc(c54)O3)CC2)c1` (centres unmarked) [Example 25], the inhibition in vivo at 20 µmol/kg in test [2] was 30%. The inhibition at 10 µM in test [1] is 91%.

Take `Cc1cc(-c2c(C)c3cccc4c3n2CC(CCC(=O)N2CCN(c3ccccn3)CC2)O4)cc(C)c1O` (centres unmarked) [Example 26]: the inhibition at 10 µM in test [1] amounted to 82%.

Regarding `Cc1cc(-c2c(C)c3c(F)ccc4c3n2CC(CCN2CCN(c3ccccn3)CC2)O4)cc(C)c1O` (centres unmarked) [Example 27], the inhibition in vivo at 20 µmol/kg in test [2] amounted to 55%.

For `Cc1ccnc(N2CCN(CCC3Cn4c(-c5cc(C)c(O)c(C)c5)c(C)c5c(F)ccc(c54)O3)CC2)c1` (centres unmarked) [Example 28], the inhibition at 10 µM in test [1] stood at 83%.

In the case of `Cc1ccnc(N2CCN(CCCC3Cn4c(-c5cc(C)c(O)c(C)c5)c(C)c5c(F)ccc(c54)O3)CC2)c1` (centres unmarked) [Example 29], the inhibition in vivo at 20 µmol/kg in test [2] came to 46%. Moreover, the inhibition at 10 µM in test [1] was 50%.

In the case of `Cc1ccc(N2CCN(C(=O)CCC3Cn4c(-c5ccc(O)cc5)c(C)c5cccc(c54)O3)CC2)nc1` (centres unmarked) [Example 34], in test [1], the inhibition at 10 µM turned out to be 77%.

With `COc1cc(-c2c(C)c3cccc4c3n2CC(CCC(=O)N2CCN(c3ccc(C)cn3)CC2)O4)ccc1O` (centres unmarked) [Example 39], the inhibition in vivo at 20 µmol/kg in test [2] came out at 32%.

Turning to `Cc1ccnc(N2CCN(CCC3Cn4c(-c5cc(C)c(O)c(C)c5)c(C)c5cc(F)cc(c54)O3)CC2)c1` (centres unmarked) [Example 42], the inhibition in vivo at 20 µmol/kg in test [2] came to 36%. Also, in test [1], the inhibition at 10 µM was determined as 40%.

As for `COc1cc2c3c(c1)c(C)c(-c1cc(C)c(O)c(C)c1)n3CC(CCN1CCN(c3cc(C)ccn3)CC1)O2` (centres unmarked) [Example 43], the inhibition in vivo at 20 µmol/kg in test [2] is 32%. The inhibition at 10 µM in test [1] is 95%.

As for `Cc1ccnc(N2CCN(CCC3Cn4c(-c5cc(C)c(O)c(C)c5)c(C)c5cc(O)cc(c54)O3)CC2)c1` (centres unmarked) [Example 44], in test [2], the inhibition in vivo at 20 µmol/kg was determined as 37%. In addition, the inhibition at 10 µM in test [1] is 99%.

For the molecule `Cc1cc(-c2c(C)c3cccc4c3n2CC(CCCCN2CCN(c3ccccn3)CC2)O4)cc(C)c1O` (centres unmarked) [Example 65], the inhibition at 10 µM in test [1] was 52%.

For the molecule `Cc1ccnc(N2CCN(C(=O)CCC3Cn4c(-c5cc(C)c(O)c(C)c5)c(C)c5c(O)ccc(c54)O3)CC2)c1` (centres unmarked) [Example 67], in test [1], the inhibition at 10 µM is 97%.

As to `Cc1ccnc(N2CCN(C(=O)CCC3Cn4c(-c5ccc(O)cc5)c(C)c5c(O)ccc(c54)O3)CC2)c1` (centres unmarked) [Example 69], the inhibition at 10 µM in test [1] was 97%.

As for `Cc1cc(-c2c(C)c3c(O)ccc4c3n2CC(CCC(=O)N2CCN(c3ccccn3)CC2)O4)cc(C)c1O` (centres unmarked) [Example 71], in test [1], the inhibition at 10 µM amounted to 84%.

For `COc1cc(-c2c(C)c3c(O)ccc4c3n2CC(CCC(=O)N2CCN(c3ccccn3)CC2)O4)cc(C)c1O` (centres unmarked) [Example 72], the inhibition at 10 µM in test [1] worked out at 79%.

Values taken from US5474988A, “5-phenylpyrrolo-1,4-benzoxazine and 5-phenylpyrrolo-1,4-benzothiazine compounds, process and intermediates for their production and pharmaceutical compositions containing them” (Kali-Chemie Pharma GmbH, priority 1993, dated 1995).
